Assay results as given in PubChem BioAssay AID328 (DTP/NCI, 2004).
“And” between values parts separate entries of the source, which are not always exact repeats. Equal values may be shown once. Inconclusive results and toxic doses are left out.

System: BDF1 mice, P388 leukemia ip, median survival T/C
Assay: NCI In Vivo Anticancer Drug Screen. Data for tumor model P388 Leukemia (intraperitoneal) in B6D2F1 (BDF1) mice
Details: endpoint: median survival time, higher = longer survival
Procedure, shortened: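 Mice carrying the transplantable tumour receive compound or vehicle. Survival is followed in each arm, and the treated measure is divided by the vehicle measure.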

[1] = dose: 100.0 mg/kg/injection, schedule: Q01DX009 (ip), vehicle: saline with Tween-80
[2] = dose: 200.0 mg/kg/injection, schedule: Q01DX009 (ip), vehicle: saline with Tween-80
[3] = dose: 132.0 mg/kg/injection, schedule: Q04DX003 (ip), vehicle: saline
[4] = dose: 200.0 mg/kg/injection, schedule: Q04DX003 (ip), vehicle: saline
[5] = dose: 50.0 mg/kg/injection, schedule: Q01DX009 (ip), vehicle: saline with Tween-80

In the case of `N#CCCCCCl`, the T/C (dose: 25.0 mg/kg/injection, schedule: Q01DX001 (ip), vehicle: saline) is reported as 90 % of control, the T/C (dose: 50.0 mg/kg/injection, schedule: Q01DX001 (ip), vehicle: saline) is reported as 100 % of control and the T/C (dose: 100.0 mg/kg/injection, schedule: Q01DX001 (ip), vehicle: saline) is reported as 95 % of control and 100 % of control.

`COC(=O)C(Sc1ccc(Cl)cc1)C1SC(=S)N(C)C1=O` (centres undefined) was tested, and the T/C [1] was 118 % of control and the T/C [2] was 92 % of control.

For `O=Cc1ccc(N2CCCCC2)cc1`, the T/C (dose: 100.0 mg/kg/injection, schedule: Q04DX003 (ip), vehicle: Klucel (hydroxypropylcellulose) (HPC)) was 91 % of control and the T/C (dose: 200.0 mg/kg/injection, schedule: Q04DX003 (ip), vehicle: Klucel (hydroxypropylcellulose) (HPC)) was 95 % of control.

For `OC(CCCCl)CC(O)(C(F)(F)F)C(F)(F)F` (centres undefined), the T/C (dose: 100.0 mg/kg/injection, schedule: Q04DX003 (ip), vehicle: saline with Tween-80) was 100 % of control and the T/C (dose: 200.0 mg/kg/injection, schedule: Q04DX003 (ip), vehicle: saline with Tween-80) was 109 % of control.

For `CCN(CCNc1ccc(C)c2sc3ccccc3c(=O)c12)CC(C)(C)O`, the T/C (dose: 35.0 mg/kg/injection, schedule: Q01DX009 (ip), vehicle: saline) was 108 % of control, the T/C (dose: 44.0 mg/kg/injection, schedule: Q04DX003 (ip), vehicle: saline) was 105 % of control and the T/C (dose: 66.0 mg/kg/injection, schedule: Q04DX003 (ip), vehicle: saline) was 120 % of control. For the same compound, the T/C (dose: 100.0 mg/kg/injection, schedule: Q01DX009 (ip), vehicle: saline) was 159 % of control, the T/C [3] was 160 % of control and the T/C [4] was 185 % of control. For the same compound, the T/C (dose: 225.0 mg/kg/injection, schedule: Q01DX009 (ip), vehicle: saline) was 90 % of control.

For `COC(=O)C(CSCSC)NC(=O)/C=C/c1cc(OC)ccc1OC` (centres undefined), the T/C [5] was 93 % of control, the T/C [1] was 92 % of control and the T/C [2] was 88 % of control.

With `CN1CCC(OC(=O)c2ccc3c(c2)OCO3)CC1` the T/C (dose: 12.5 mg/kg/injection, schedule: Q04DX003 (ip), vehicle: saline with Tween-80) was 100 % of control, the T/C (dose: 25.0 mg/kg/injection, schedule: Q04DX003 (ip), vehicle: saline with Tween-80) was 117 % of control and the T/C (dose: 50.0 mg/kg/injection, schedule: Q04DX003 (ip), vehicle: saline with Tween-80) was 91 % of control.

For `O=C(O)CC(O)(CC(=O)O)C(=O)O.[Ga]`, the T/C (dose: 75.0 mg/kg/injection, schedule: Q01DX009 (ip), vehicle: saline) was 114 % of control, the T/C (dose: 112.5 mg/kg/injection, schedule: Q01DX009 (ip), vehicle: saline) was 90 % of control and the T/C [3] was 115 % of control. For the same compound, the T/C [4] was 110 % of control and the T/C (dose: 300.0 mg/kg/injection, schedule: Q04DX003 (ip), vehicle: saline) was 110 % of control.

`CNC(=O)c1ccc(NC(=O)Nc2cccc(C3=NCCN3)c2)cc1NC(=O)Nc1cccc(C2=NCCN2)c1` was tested, and the T/C (dose: 30.0 mg/kg/injection, schedule: Q01DX009 (ip), vehicle: saline with Tween-80) was 162 % of control.

For `Oc1ccccc1C=NCCN1CC1.Oc1ccccc1C=NCCN1CC1.[Cu]`, the T/C (dose: 6.25 mg/kg/injection, schedule: Q01DX001 (ip), vehicle: saline sonified) was 104 % of control, the T/C (dose: 8.25 mg/kg/injection, schedule: Q01DX001 (ip), vehicle: saline) was 104 % of control and the T/C (dose: 12.5 mg/kg/injection, schedule: Q01DX001 (ip), vehicle: saline) was 112 % of control. For the same compound, the T/C (dose: 18.75 mg/kg/injection, schedule: Q01DX001 (ip), vehicle: saline) was 124 % of control and the T/C (dose: 25.0 mg/kg/injection, schedule: Q01DX001 (ip), vehicle: saline sonified) was 118 % of control.

For `CCOC(=O)Nc1cc(NC(C)CCCN(CC)CC)c2ncc(-c3cc(OC)c(OC)c(OC)c3)nc2n1` (centres undefined) (tested in a mixture with another compound), the T/C (dose: 25.0 mg/kg/injection, schedule: Q01DX009 (ip), vehicle: saline) was 115 % of control, the T/C (dose: 50.0 mg/kg/injection, schedule: Q01DX009 (ip), vehicle: saline) was 120 % of control and the T/C (dose: 50.0 mg/kg/injection, schedule: Q04DX003 (ip), vehicle: saline) was 95 % of control. For the same compound, the T/C (dose: 100.0 mg/kg/injection, schedule: Q04DX003 (ip), vehicle: saline) was 109 % of control.

For `CC(C)NCc1ccccc1Sc1ccccc1CNC(C)C`, the T/C (dose: 100.0 mg/kg/injection, schedule: Q01DX001 (ip), vehicle: saline with Tween-80) was 103 % of control and the T/C (dose: 100.0 mg/kg/injection, schedule: Q04DX002 (ip), vehicle: saline) was 103 % of control.

With `CN(C)CC(C(=O)Cc1ccccc1)c1ccccc1` (centres undefined) the T/C [5] was 102 % of control and the T/C [1] was 111 % of control.

`CC12C(=O)C(C)(C(c3ccccc3)=C1c1ccccc1)C1(c3ccccc3)C(c3ccccc3)C21c1ccccc1` (centres undefined) was tested, and the T/C (dose: 50.0 mg/kg/injection, schedule: Q01DX009 (ip), vehicle: Klucel (hydroxypropylcellulose) (HPC)) was 100 % of control, the T/C (dose: 100.0 mg/kg/injection, schedule: Q01DX009 (ip), vehicle: Klucel (hydroxypropylcellulose) (HPC)) was 100 % of control and the T/C (dose: 200.0 mg/kg/injection, schedule: Q01DX009 (ip), vehicle: Klucel (hydroxypropylcellulose) (HPC)) was 104 % of control.
